Values of other authors as cited in patent publication US7803735B2, “Hydroconversion processes employing multi-metallic catalysts and method for making thereof” (Chevron U.S.A. Inc., priority 2007, dated 2010).

Tested on: rats
Details: single oral dose to rats; chelating agent (ligand) L

In the case of `O=CC(=O)O` [glyoxylic], the LD50 is given as 3000 mg/kg.
